The text below walks through data of patent US10059702B2, “Inhibitors of LC3/ATG3 interaction and their use in the treatment of cancer” (THE JOHNS HOPKINS UNIVERSITY, priority 2014, dated 2018).

Data set [1] concerns MCF-7, a breast cancer cell line. In words: Impedance assay (xCELLigence, Cell Index), MCF-7. Format: cell-based. The conditions noted are these: for effect on cell impedance: MCF-7, 100 μM to 1.5 μM. Here is the method: (§1) PTA or Compound 10 were added ranging from 100 μM to 1.5 μM to the cells after […]. The apparent IC50 after 72 hours of drug treatment was calculated and is shown in the inset of each graph of the triplicate impedance measurement per concentration. The DMSO vehicle control is shown as dark red line.
(§2) MCF-7 cells were maintained in RPMI media supplemented with 10% fetal bovine serum. HepG2 cells were maintained in Dulbecco's modified Eagle medium (DMEM, Invitrogen) media supplemented with 10% fetal bovine serum and 1×MEM non-essential amino acids. For cytotoxicity experiments, cells were plated on T-75 flasks and grown until they reached at 70-80% confluency.
(§3) Cell proliferation was monitored in real-time cell electronic sensing (xCELLigence System, Acea Biosciences) through gold microelectrode arrays on the bottom of 96 E-Plates. 100 μl of corresponding culture media was added into each well of 96 E-Plates, which inserted into the station and background measurement was taken. Then, cells (5,000 cells/well in 100 μl) were seeded into 96 E-Plates containing 100 μl medium/well. After about 20 hours, 200 μl medium was discarded and replaced with 100 μl of fresh medium containing indicated amounts of compounds for each well. In the xCELLigence System the changes in cell number are detected as modifications in the measurement of electrical impedance and are represented as Cell Index (CI).
(§4) To define the range of metastasizing cancer cell lines susceptible to PTA derivatives of the present invention, we can use the HUVEC electrical-impedance assay. Invasive tumor cell lines are monitored through electric impedance measurements of human umbilical vein endothelial cells (HUVEC) monolayers in the presence of PTA derivatives. […] The invasion potential of the tumor cell is measured by the change in cell impedance as the HUVEC monolayer junctions are compromised by the invading tumor cells. Cells can be monitored over multiple days while the real-time impedance is recorded. […]

Data set [2] concerns HepG2, a hepatocarcinoma cell line. In words: Impedance assay (xCELLigence, Cell Index), HepG2. Format: cell-based. The conditions noted are these: for effect on cell impedance: HepG2, 100 μM to 1.5 μM. Here is the method:
as §1, §2, §3, §4

In a further data set the test system is HC-04 liver cells. In words: Cytotoxicity in HC-04 liver cells. The data set is classed as cell-based. The conditions noted are these: 30 μM PTA for 96 hours.
The target in data set [3] is T1, PfAtg8 (Plasmodium falciparum, UniProt Q8IJK2).
T1 sequence (Q8IJK2 1-124): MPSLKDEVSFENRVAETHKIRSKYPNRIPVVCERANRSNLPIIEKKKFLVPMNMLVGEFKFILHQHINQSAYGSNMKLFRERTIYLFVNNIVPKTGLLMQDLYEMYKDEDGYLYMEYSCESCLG
In words: SPR binding of purified PfAtg8 to PTA immobilized on an SPR chip. Conditions: comparison of hLC3 with PfAtg8. An excerpt:
(§5) FIGS. 2A-2C depict the properties of the PTA-binding site on hLC3. 2A) Energy-minimized docking pose of PTA to hLC3. The pyridinylthiazolamine ringsystem predominantly binds to the W-site of hLC3. 2B) Conservation of amino acids between hLC3 and Plasmodium Atg8. Shown in yellow sticks is the bound peptide of Atg3. The W-Site is highly conserved, whereas the L-site is less conserved, explaining the lower affinity of hLC3 to PTA (FIGS. 2A, 2B adapted from Hain et al. 2013). 2C) Direct binding interaction of purified hLC3 or PfAtg8 to PTA immobilized on a SPR chip to determine their respective affinities.
(§6) In comparing the sequence conservation of this W-/L-site between PfAtg8 and hLC3, it is apparent that the W-site has maintained a higher degree of conservation, as indicated by the magenta patch in FIG. 2B. To test whether or not the W-/L-site of Atg8 was indeed the interaction area to which our small molecules bind, we performed SPR binding studies with different Atg8-homologs, essentially mimicking mutational studies in the environment of the W-/L-site. This allowed us to explore the key features of the binding site in a manner that was much more efficient than introducing multiple single point mutations for each protein of interest at a time.
(§7) SPR studies were performed on PfAtg8 and hLC3 binding to the PTA molecule immobilized on an SPR chip. […]
On the technique in general: Surface plasmon resonance follows binding to a sensor surface in real time, without labels.

For the next data set, the target named is hLC3. In words: SPR binding of purified hLC3 to PTA immobilized on an SPR chip. The arrangement: species or system human. The conditions noted are these: read-out: affinity of hLC3 to PTA on the SPR chip.
From the text: as §5, §6, §7

For the next data set, the system named is HCT8 colon cancer cells. In words: PTA-susceptibility of HCT8 colon cancer cells: microscopy and anti-LC3 Western blot. The data set is classed as cell-based, human. Conditions: 24 hours. An excerpt: FIG. 4 provides an anti-LC3 Western blot of PTA treated HCT8 colon cancer cells with corresponding Coomassie stained 4-20% SDS-PAGE. The arrows indicate the band used for quantification with ImageJ. The SDS gel indicates approximate equal amounts were loaded per lane.
To be functional in autophagy processes, hLC3 undergoes two critical activation processes. First a C-terminal glycine has to be exposed through proteolytic cleavage by the […] protease Atg4. Second, a lipid, phosphatidylethanolamine (PE), is conjugated to the C-terminal glycine residue resulting in hLC3-PE (hLC3-II). The inventors previously discovered 4-formyl-N-(4-pyridin-2-yl-1,3-thiazol-2-yl)benzamide (PTA) as an autophagy inhibitor in their studies on the plasmodial system in search of protein-protein interaction inhibitors of the PfAtg8-PfAtg3 interaction, the homologous system in the malaria parasite. The lipidated form of either Atg8 or hLC3 (hLC3-II) can be resolved from the unlipidated form (hLC3-I) using SDS-PAGE due to their different migration speeds. Specific commercial antibodies for hLC3 detection were used in these studies to quantify the two species via Western blot in treated and untreated cancer cell lines.
We used a DMSO-vehicle control. All experiments were carried out at 1% final DMSO concentration for 24 hours at 37° C. and 5% CO2. […] The DMSO control sample was trypsinized to detach the cells from the culture dish. All cells were collected and spun down before resuspending them in SDS-loading dye for SDS-PAGE and Western blot analysis. Commercial monoclonal antibodies directed against hLC3 (D3U4C Rabbit mAB) and GAPDH (14C10 Rabbit mAB) as loading control were used. The Western blot clearly distinguishes between the un-lipidated (hLC3-I) and lipidated (hLC3-II) form by their migration speed in the SDS-gel (FIG. 4). The lipidated form migrates faster in an SDS-gel due to its additional negative charge from the conjugated phospholipid. […] 0.5% DMSO will be used as a vehicle control and 33 nM Wortmannin as a positive control for autophagy inhibition.
Background: A western blot detects proteins with antibodies after separation by electrophoresis.

For data set [4], the target named is PfAtg8 (Plasmodium falciparum, UniProt Q8IJK2). Nature of the data set: Surface plasmon resonance (SPR): direct binding of purified PfAtg8 to PTA immobilized on an SPR chip. The conditions noted are these: W-/L-site, FIG. 3, read-out: PfAtg8 Kd (binding affinity to PTA).
From the text: as §5
To maintain the identical view, residue differences were painted onto the PfAtg8 structure. Residues in the proximity of the W-/L-site of hLC3 lead to lower binding affinities of our current molecule targeting the Atg8-Atg3 interaction.
In comparing the sequence conservation of this W-/L-site between PfAtg8 and hLC3, it is apparent that the W-site has maintained a higher degree of conservation, as indicated by the magenta patch in FIG. 2B. To test whether or not the W-/L-site of Atg8 was indeed the interaction area to which our small molecules bind, we performed SPR binding studies with different Atg8-homologs, essentially mimicking mutational studies in the environment of the W-/L-site. […]

Data set [5] relates to hLC3 with hAtg3 interaction. In words: hLC3/hAtg3 protein-protein interaction in vitro. The data set is classed as binding, human. Here is the method:
Our structural understanding of how the hLC3 binds the PTA-scaffold combined with surface plasmon resonance (SPR)-interaction studies, has enabled the inventors to design the PTA-analogs of the present invention with low Koff-rates. […] These new PTA-analogs are tested in SPR-based assays with purified recombinant hLC3 and hAtg3 to assess their ability to prevent the protein-protein interaction. Newly emerging molecules from our efforts are subjected to dose-dependent cell based screening with our cancer line collection.
About 120 PTA-homologs were identified in the PubChem database (pubchem.ncbi.nlm.nih.gov) that are available through commercial vendors. In a first assessment to determine which homologs to focus on initially, virtual library screening was performed with the known hLC3 structures (1UGM, 3ECI, 3WAL, 3WAO). Comparing the docking results from different structures of hLC3 allowed us to assemble a short list of nine high priority compounds (compounds 1-9). […] Two complementary assays will be utilized, the first assesses the small molecule's ability to block the protein-protein interaction of hLC3 with hAtg3. The second assay is used to directly measure the binding of the small molecule to immobilized hLC3 on an SPR chip, which will allow us to draw conclusions about the physical interaction between the two binding partners.

pIC50, pKd: −log10 of the molar value.

With `COC(OC)c1ccc(C(=O)Nc2ncc(-c3ccccn3)s2)cc1` [Compound 10], the “effect on cell impedance” value in data set [1] and in data set [2] was “concentration dependent effect” in each case.
Broadly, the pIC50 is −log10 of the IC50, conventionally taken in molar units. For `O=Cc1ccc(C(=O)Nc2nc(-c3ccccn3)cs2)cc1` [PTA, 4-formyl-N-(4-pyridin-2-yl-1,3-thiazol-2-yl)benzamide], the “cytotoxic effect / tolerability” value with HC-04 liver cells is recorded as “well tolerated”. For the same compound, the “binding affinity to immobilized PTA, hLC3 versus PfAtg8” value at PfAtg8 [3] is listed as “decrease of binding affinity for hLC3 versus PfAtg8”. The pKd was 4.74 on hLC3 and 6.27 at PfAtg8 [4]. The “cell appearance by microscopy at lowest concentration” value in the data set with HCT8 colon cancer cells (HCT8, 6.75 μM PTA) is recorded as “a few patches of attached cells still visible”. In addition, the “hLC3 lipidation (hLC3-I / hLC3-II bands) in Western blot” value in the data set on HCT8 colon cancer cells (HCT8, PTA treated) was “accumulation of the slower migrating hLC3-I band is visible”. Further, the “cell appearance by microscopy” value in the data set with HCT8 colon cancer cells (HCT8, about 100 μM to 6.25 μM PTA, 1% DMSO) was “detached, blebbing cells with a concentration dependent phenotype”. The negative-log IC50 (pIC50) is approximately 4.74 in data set [1] (MCF7a, MCF-7, impedance, 100 μM to 1.5 μM, 72 hours, read-out: apparent IC50 after 72 hours of drug treatment) and approximately 4.74 in data set [2] (Homo sapiens, HepG2, impedance, 100 μM to 1.5 μM, 72 hours, read-out: apparent IC50 after 72 hours of drug treatment). Also, the “effect on cell impedance” value in data set [1] and in data set [2] was “concentration dependent effect” each time. In data set [5], the “prevention of protein-protein interaction of hLC3 with hAtg3” value is on record as “specifically prevents the protein-protein interaction of hLC3 with hAtg3”.
